Values quoted from earlier work in patent publication US20110236881A1, “MODULATION OF INFLUENZA VIRUS” (priority 2008, published 2011).

Molecular target: full-length M2 (Influenza A virus, UniProt P0DOF5)
Conditions: the protein binds a single drug molecule per tetramer

Chain of full-length M2 (P0DOF5 whole entry): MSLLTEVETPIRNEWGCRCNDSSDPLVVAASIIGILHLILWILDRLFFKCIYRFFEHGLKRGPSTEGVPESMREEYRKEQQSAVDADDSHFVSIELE

NC12CC3CC(CC(C3)C1)C2 [amantadine]
cooperativity factor of inhibition of full-length M2: 1.0
